From patent US9359339B2, “Glucagon receptor antagonist compounds, compositions containing such compounds and methods of use” (Merck Sharp & Dohme Corp., priority 2009, dated 2016)

The compounds below were run against human glucagon receptor (Homo sapiens (Human), UniProt P47871) (assay: Glucagon Receptor Binding Assay (125I-glucagon SPA, CHO cell membranes)). Conditions: inhibition of 125I-Glucagon binding to membranes of CHO cells expressing cloned human glucagon receptor; more active isomer.
Description: Glucagon Receptor Binding Assay
A stable CHO (Chinese hamster ovary) cell line expressing cloned human glucagon receptor was maintained as described (Chicchi, et. al. J Biol Chem 272, 7765-9 (1997); Cascieri, et. al. J Biol Chem 274, 8694-7 (1999)). To determine antagonistic binding affinity of compounds, 0.001-0.003 mg of cell membranes from these cells were pre-incubated with 0.100 mg WGA-coated PVT SPA beads (Amersham) for 20 minutes at room temperature in 25 μL of a buffer containing 50 mM Tris-HCl (pH 7.5), 5 mM MgCl2, 2 mM EDTA, 0.1% BSA and 3% glycerol in Costar 384 well plates with clear bottoms (#3706). Next, 25 μL of ^125I-Glucagon (New England Nuclear, MA) (1×10^−14 mol per well) and either 1 μL solutions of test compounds or 0.001 mM unlabeled glucagon or DMSO were added and mixed. After 4-12 hours incubation at room temperature, the radioactivity bound to the cell membranes was determined in a radioactive emission detection counter (Wallac-Microbeta). Data were analyzed using the Data Analyzer software program of Merck & Co., Inc. The IC50 values were calculated using non-linear regression analysis assuming single-site competition.

Chain of human glucagon receptor (P47871 26-477): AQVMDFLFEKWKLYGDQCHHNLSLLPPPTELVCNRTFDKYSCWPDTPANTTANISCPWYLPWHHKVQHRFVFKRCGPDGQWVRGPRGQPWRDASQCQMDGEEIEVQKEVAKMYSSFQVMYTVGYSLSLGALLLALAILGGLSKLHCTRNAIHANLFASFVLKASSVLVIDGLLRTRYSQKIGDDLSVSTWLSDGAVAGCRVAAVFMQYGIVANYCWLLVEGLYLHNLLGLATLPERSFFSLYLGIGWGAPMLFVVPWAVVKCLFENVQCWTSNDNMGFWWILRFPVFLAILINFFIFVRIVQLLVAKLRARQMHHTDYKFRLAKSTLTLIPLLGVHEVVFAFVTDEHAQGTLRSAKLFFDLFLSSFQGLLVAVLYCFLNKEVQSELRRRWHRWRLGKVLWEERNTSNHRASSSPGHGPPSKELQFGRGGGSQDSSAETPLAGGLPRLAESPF

Compared with `CCC[C@H](c1ccc(C(=O)NCCC(=O)O)cc1)C(c1ccc(Cl)cc1)c1csc2c(C#N)cc(Cl)cc12` (stereo partly drawn) [Example 1, N-(4-{(1S)-1-[(5-CHLORO-7-CYANO-1-BENZOTHIEN-3-YL)(4-CHLOROPHENYL)METHYL]BUTYL}BENZOYL)-β-ALANINE], `CCCC[C@H](c1ccc(C(=O)NCCC(=O)O)cc1)C(c1ccc(Cl)cc1)c1csc2c(C#N)cc(Cl)cc12` (stereo partly drawn) [Example 29, N-(4-{(1S)-1-[(5-CHLORO-7-CYANO-1-BENZOTHIEN-3-YL)(4-CHLOROPHENYL)METHYL]PENTYL}BENZOYL)-β-ALANINE] is 16-fold lower in IC50: 6.2 nM for the first, 0.4 nM for the second.

First: CCCC[C@H](c1ccc(C(=O)NCCC(=O)O)cc1)C(c1ccc(Cl)cc1)c1csc2c(-c3ccnn3C)cc(F)cc12 (stereo partly drawn) [Example 2, N-[4-((1S)-1-{(4-CHLOROPHENYL)[5-FLUORO-7-(1-METHYL-1H-PYRAZOL-5-YL)-1-BENZOTHIEN-3-YL]METHYL}PENTYL)BENZOYL]-β-ALANINE]
Second: CCC[C@H](c1ccc(C(=O)NCCC(=O)O)cc1)C(c1ccc(Cl)cc1)c1csc2c(C#N)cc(F)cc12 (stereo partly drawn) [Example 13, N-(4-{(1S)-1-[(5-FLUORO-7-CYANO-1-BENZOTHIEN-3-YL)(4-CHLOROPHENYL)METHYL]BUTYL}BENZOYL)-β-ALANINE]
The IC50 of the first is 4.3-fold higher: 4.7 nM for the first, 1.1 nM for the second. The second is the more potent here.

`CCC[C@H](c1ccc(C(=O)Nc2nnn[nH]2)cc1)C(c1ccc(Cl)cc1)c1csc2c(Br)cc(C)cc12` (stereo partly drawn) [Example 3, 4-{(1S)-1-[(7-BROMO-5-METHYL-1-BENZOTHIEN-3-YL)(4-CHLOROPHENYL)METHYL]BUTYL}-N-1H-TETRAZOL-5-YLBENZAMIDE] and `CCC[C@H](c1ccc(C(=O)NCc2nn[nH]n2)cc1)C(c1ccc(Cl)cc1)c1csc2c(Br)cc(C)cc12` (stereo partly drawn) [Example 4, 4-{(1S)-1-[(7-BROMO-5-METHYL-1-BENZOTHIEN-3-YL)(4-CHLOROPHENYL)METHYL]BUTYL}-N-(2H-TETRAZOL-5-YLMETHYL)BENZAMIDE] are within 1.5-fold of each other in IC50: 2.3 nM for the first, 2.5 nM for the second.

Compared with `CCC[C@H](c1ccc(C(=O)NCCC(=O)O)cc1)C(c1ccc(Cl)cc1)c1csc2c(C)cc(Cl)cc12` (stereo partly drawn) [Example 6, N-(4-{(1S)-1-[(5-CHLORO-7-METHYL-1-BENZOTHIEN-3-YL)(4-CHLOROPHENYL)METHYL]BUTYL}BENZOYL)-β-ALANINE], `CCC[C@H](c1ccc(C(=O)NCCC(=O)O)cc1)C(c1ccc(Cl)cc1)c1csc2c(C#N)cc(C)cc12` (stereo partly drawn) [Example 14, N-(4-{(1S)-1-[(5-METHYL-7-CYANO-1-BENZOTHIEN-3-YL)(4-CHLOROPHENYL)METHYL]BUTYL}BENZOYL)-β-ALANINE] is 22-fold lower in IC50: 28 nM for the first, 1.3 nM for the second. The second is the more potent here.

`CCC[C@H](c1ccc(C(=O)NCCC(=O)O)cc1)C(c1ccc(Cl)cc1)c1c(C)sc2ccccc12` (stereo partly drawn) [Example 8, N-(4-{(1S)-1-[(2-METHYL-1-BENZOTHIEN-3-YL)(4-CHLOROPHENYL)METHYL]BUTYL}BENZOYL)-β-ALANINE] and `CCC[C@H](c1ccc(C(=O)NCCC(=O)O)cc1)C(c1ccc(Cl)cc1)c1sc2ccccc2c1C` (stereo partly drawn) [Example 45, N-[4-((1S)-1-{(4-CHLOROPHENYL)[3-METHYL-1-BENZOTHIEN-2-YL]METHYL}BUTYL)BENZOYL]-β-ALANINE] are within 1.5-fold of each other in IC50: 2.2 nM for the first, 1.8 nM for the second.

First: CCC[C@H](c1ccc(C(=O)NCCC(=O)O)cc1)C(c1ccc(Cl)cc1)c1csc2c(C#N)cc(C(F)(F)F)cc12 (stereo partly drawn) [Example 15, N-(4-{(1S)-1-[(5-TRIFLUOROMETHYL-7-CYANO-1-BENZOTHIEN-3-YL)(4-CHLOROPHENYL)METHYL]BUTYL}BENZOYL)-β-ALANINE]
Second: CCC[C@H](c1ccc(C(=O)NCCC(=O)O)cc1)C(c1ccc(OC(F)(F)F)cc1)c1csc2c(C#N)cc(Cl)cc12 (stereo partly drawn) [Example 25, N-(4-{(1S)-1-[(5-CHLORO-7-CYANO-1-BENZOTHIEN-3-YL)(4-TRIFLUOROMETHOXYPHENYL)METHYL]BUTYL}BENZOYL)-β-ALANINE]
The IC50 of the first is 17-fold higher: 1.7 nM for the first, 0.1 nM for the second.

Compared with `CCC[C@H](c1ccc(C(=O)NCCC(=O)O)cc1)C(c1ccc(Cl)cc1)c1c(C)sc2c(C#N)cc(Cl)cc12` (stereo partly drawn) [Example 19, N-(4-{(1S)-1-[(2-METHYL-5-CHLORO-7-CYANO-1-BENZOTHIEN-3-YL)(4-CHLOROPHENYL)METHYL]BUTYL}BENZOYL)-β-ALANINE], `CCCC[C@H](c1ccc(C(=O)NCCC(=O)O)cc1)C(c1ccc(Cl)cc1)c1csc2c(C#N)cc(Cl)cc12` (stereo partly drawn) [Example 32, N-(4-{(1S)-1-[(5-CHLORO-7-CYANO-1-BENZOTHIEN-3-YL)(4-CHLOROPHENYL)METHYL]-4-METHYLBUTYL}BENZOYL)-β-ALANINE] is 7.8-fold lower in IC50: 7.8 nM for the first, 1 nM for the second. The second is the more potent here.

Going from `CCC[C@H](c1ccc(C(=O)NCCC(=O)O)cc1)C(c1ccc(Cl)c(Cl)c1)c1csc2c(C#N)cc(Cl)cc12` (stereo partly drawn) [Example 21, N-(4-{(1S)-1-[(5-CHLORO-7-CYANO-1-BENZOTHIEN-3-YL)(3,4-DICHLOROPHENYL)METHYL]BUTYL}BENZOYL)-β-ALANINE] to `N#Cc1cc(Cl)cc2c(C(c3ccc(Cl)cc3)[C@H](CCC(F)(F)F)c3ccc(C(=O)NCCC(=O)O)cc3)csc12` (stereo partly drawn) [Example 27, N-(4-{(1S)-1-[(5-CHLORO-7-CYANO-1-BENZOTHIEN-3-YL)(4-CHLOROPHENYL)METHYL]-4,4,4-TRIFLUOROBUTYL}BENZOYL)-β-ALANINE], the IC50 falls from 0.7 nM to 0.2 nM (3.5-fold).

Going from `CCC[C@H](c1ccc(C(=O)NCCC(=O)O)cc1)C(c1ccc(OC(F)(F)F)cc1)c1csc2c(C#N)cc(C)cc12` (stereo partly drawn) [Example 23, N-(4-{(1S)-1-[(5-METHYL-7-CYANO-1-BENZOTHIEN-3-YL)(4-TRIFLUOROMETHOXYPHENYL)METHYL]BUTYL}BENZOYL)-β-ALANINE] to `CCC[C@H](c1ccc(C(=O)NCC(F)(F)C(=O)O)cc1)C(c1ccc(Cl)cc1)c1csc2c(Br)cc(C)cc12` (stereo partly drawn) [Example 40, 3-[(4-{(1S)-1-[(5-METHYL-7-BROMO-1-BENZOTHIOPHEN-3-YL)(4-CHLOROPHENYL)METHYL]BUTYL}BENZOYL)AMINO]-2,2-DIFLUOROPROPANOIC ACID], the IC50 rises from 0.2 nM to 11.8 nM (59-fold). The first is the more potent here.

In the case of `CCC[C@H](c1ccc(C(=O)NCCS(=O)(=O)O)cc1)C(c1ccc(Cl)cc1)c1csc2c(Br)cc(C)cc12` (stereo partly drawn) [Example 43, 2-[(4-{(1S)-1-[(5-METHYL-7-BROMO-1-BENZOTHIOPHEN-3-YL)(4-CHLOROPHENYL)METHYL]BUTYL}BENZOYL)AMINO]ETHANE SULFONIC ACID], the IC50 is reported as 3.4 nM.
